pIC50: −log10 of the molar value.
What was measured:
EGFR = biological target: T1, EGFR (Homo sapiens, UniProt P00533); assay: EGFR Kinase Assay; type: biochemical; conditions: for inhibition at 2 µM: test concentration of 2 μM, read-out: EGFR percent inhibition
T1 construct: The intracellular portion of EGFR started at nucleotide 2189 (corresponding to amino acid 667) and ended at the termination codon; made in house; host or cells: Sf9 insect cells (baculovirus)
Description: The EGFR kinase used was a fusion of Glutathione-S-Transferase (GST) and a PCR amplified intracellular portion of EGFR (NM_005228). The intracellular portion of EGFR started at nucleotide 2189 (corresponding to amino acid 667) and ended at the termination codon. The portion was PCR amplified with primers that added the lambda attB sequences to each end, recombined into an entry vector, then into a GST destination vector (as described in Gateway Technologies Manual by Invitrogen Corporation, Carlsbad, Calif.).
The destination vector was recombined in the DH10BAC strain of bacteria to produce a bacmid. The bacmid was transfected into Sf 9 cells and the supernatant containing the baculovirus was collected. The GSTEGFR protein was purified using large cultures of Sf 9 cells infected with stock virus. After an appropriate period of time, the cells were collected and lysed. The GSTEGFR was then purified from the lysate on Glutathione-Sepharose columns (as described by Amersham Biosciences, Buckinghamshire, United Kingdom).
The EGFR substrate was prepared by biotinylating polyGluTyr (128 mg) (Sigma, St. Louis, Mo.) in a 1×PBS buffer incubated together with a 12-fold molar excess of Sulfo-NHS-LC-Biotin on ice for at least 2 hrs. The free biotin was separated from the biotinylated polyGluTyr on a gel filtration column.
A mixture of a 10× kinase buffer (500 mM Tris at pH 8.0, 100 mM Magnesium Chloride and 1 mM Sodium Vanadate), DTT (1 mM final from 500 mM stock), ATP (5 μM final from 10 mM stock), biotinylated polyGluTyr (10 μg/μL stock), γ-^33P ATP (10 μCi/μL stock) and water was added to each well (90 μL/well) of a Streptavidin Flashplate (Perkin Elmer, Wellesley, Mass.).
Test compound in 100% DMSO (2 μL) was added to the appropriate wells. Diluted GSTEGFR (1:300 dilution in 50 mM Tris at pH 8.0 and 0.1% bovine serum albumin) (10 μL) was added to the wells to initiate the reactions.
The plates were incubated at 30° C. for 1 hr with shaking. The reacted contents were removed and the plates were sequentially washed three times with a 1×PBS stop buffer (300 μL without Magnesium and Calcium) and 100 mM EDTA. After the final wash, the same stop buffer (200 μL) was added to the wells. The plates were then sealed and read on the TopCount scintillation counter.
Test compounds were assayed in triplicate at 16 concentrations at half-log dilutions starting at 200 uM. A maximum and minimum signal for the assay was determined on each plate. The percent inhibition of a test compound was calculated according to the formula
For a series of test concentrations, the IC50 was derived by graphing percent inhibition against the log of the concentrations tested for a given compound. For those compounds without an IC50, the percent inhibition results are shown at a test concentration of 2 μM.

VEGF-R2 = biological target: T2, VEGF-R2 (Rattus norvegicus, UniProt O08775); assay: VEGF-R2 Screening Assay; type: biochemical; conditions: for inhibition at 1 µM: test concentration of 1 μM, read-out: VEGF-R2 percent inhibition
T2 construct: polyhistidine (N)
T2 sequence (O08775 786-1343): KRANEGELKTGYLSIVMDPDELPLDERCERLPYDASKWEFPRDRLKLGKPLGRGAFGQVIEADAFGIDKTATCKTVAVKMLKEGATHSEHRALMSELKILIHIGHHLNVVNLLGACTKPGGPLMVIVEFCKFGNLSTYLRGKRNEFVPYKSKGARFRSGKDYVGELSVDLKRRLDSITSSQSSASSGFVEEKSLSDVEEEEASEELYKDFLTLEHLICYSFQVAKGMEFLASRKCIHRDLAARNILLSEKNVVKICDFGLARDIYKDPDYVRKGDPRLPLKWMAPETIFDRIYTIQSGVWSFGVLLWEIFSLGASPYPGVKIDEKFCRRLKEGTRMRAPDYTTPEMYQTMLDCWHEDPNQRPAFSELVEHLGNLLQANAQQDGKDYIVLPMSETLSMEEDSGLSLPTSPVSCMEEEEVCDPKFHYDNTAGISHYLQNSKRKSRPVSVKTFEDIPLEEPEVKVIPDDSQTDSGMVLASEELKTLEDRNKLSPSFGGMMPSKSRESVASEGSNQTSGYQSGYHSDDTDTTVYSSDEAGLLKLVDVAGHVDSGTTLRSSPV
Procedure: (§1) A kinase reaction mixture was prepared containing 50 mM Tris-HCl at pH 8, 10 mM, MgCl20.1 mM […], 1 mM DTT, 10 μM ATP, 0.025 μM biotinylated histone-H1 peptide substrate and 0.2 μCuries per well ^33P-γ-ATP (2000-3000 Ci/mmol). 70 μL of the kinase reaction mixture was dispensed into the well of a Streptavidin FlashPlate.
(§2) Test compound stock in 100% DMSO (1 μL) was added to the wells resulting in a final concentration of 1% DMSO in the reaction with a 100 μL final reaction volume. Each enzyme was diluted in 50 mM Tris-HCl pH=8.0, 0.1% BSA and 30 μL was added to each well to initiate the reaction. The reaction was incubated for one hour at 30° C. At the end of the 1 hr incubation, the reaction was terminated by aspirating the mixture from the plate and washing the wells twice with PBS containing 100 mM EDTA. The biotinylated peptide substrate became immobilized on the Flashplate^198 and the incorporation of ^33P-γ-ATP was measured by reading the plate on a scintillation counter. Inhibition of the enzymatic activity was measured by observing a reduced amount of ^33P-γ-ATP incorporated into the immobilized peptide.
The VEGF-R2 enzyme is a fusion protein containing a polyhistidine tag at the N terminus followed by amino acids 786 to 1343 of the rat VEGF-R2 kinase domain (Accession number U93306). The assay used 150 ng of the N-terminal biotinylated peptide biotin-KHKKLAEGSAYEEV-amide (VEGF-R2) per well.
(§3) The IC50 was derived according to the procedure described in Example 2. For those compounds without an IC50, the percent inhibition results are shown at a test concentration of 1 μM.

HER-2 = biological target: T3, HER-2 (Homo sapiens, UniProt P04626); assay: HER-2 Kinase Assay; type: biochemical; conditions: for inhibition at 1 µM: test concentration of 1 μM, read-out: HER-2 percent inhibition
T3 construct: the nucleotides encoding amino acids 679 to 1255 of HER-2; purchased Proqinase (Freiburg, Germany)
T3 sequence (P04626 679-1255): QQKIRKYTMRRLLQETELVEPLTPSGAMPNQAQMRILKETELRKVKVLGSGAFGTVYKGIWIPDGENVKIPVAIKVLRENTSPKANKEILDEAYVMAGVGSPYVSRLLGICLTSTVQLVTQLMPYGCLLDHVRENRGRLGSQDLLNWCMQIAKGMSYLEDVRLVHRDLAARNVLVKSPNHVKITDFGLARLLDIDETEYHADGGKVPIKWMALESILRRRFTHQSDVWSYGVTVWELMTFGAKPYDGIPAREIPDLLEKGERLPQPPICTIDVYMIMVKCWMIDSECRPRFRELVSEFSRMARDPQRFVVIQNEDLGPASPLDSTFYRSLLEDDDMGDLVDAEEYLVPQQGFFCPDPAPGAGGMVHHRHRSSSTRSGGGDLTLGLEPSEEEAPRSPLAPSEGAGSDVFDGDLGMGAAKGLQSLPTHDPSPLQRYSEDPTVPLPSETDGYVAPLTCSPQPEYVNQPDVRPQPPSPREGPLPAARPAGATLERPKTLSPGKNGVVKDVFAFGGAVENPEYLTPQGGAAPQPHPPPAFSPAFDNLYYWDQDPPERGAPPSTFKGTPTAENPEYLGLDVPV
Procedure: HER-2 kinase was purified at Proqinase (Freiburg, Germany) from a construct that consisted of a fusion of GST (Glutathione-S-Transferase), HIS6-Thrombin and the nucleotides encoding amino acids 679 to 1255 of HER-2.
A mixture of a 10× kinase reaction buffer (600 mM Hepes at pH 7.5, 30 mM Magnesium Chloride, 0.03 mM Sodium Vanadate and 500 μg/mL PEG 20,000), DTT (1.2 mM final from a 10 mM stock), ATP (1 μM from a 10 mM stock), biotinylated polyGluTyr (1.5 ng/μL final from stock of 1 μg/μL prepared by Upstate Biotechnologies, Lake Placid, N.Y.), Manganese Chloride (3 mM final from a 1 M stock), γ-^33P-ATP (10 μCi/μL stock) and water (70 μL/well) was added to each well of a Streptavidin Flashplate (Cat. #SMP103, NEN, Boston, Mass.).
Test compound stock (1 μL) was added to the appropriate wells. Diluted GSTHER2 kinase (6.7 ng/μL diluted into 50 mM Tris-HCl at pH 8.0 and 0.1% bovine serum albumin) (30 μL) was added (total volume of 200 ng/well) to initiate the reactions.
The reaction plates were incubated at 30° C. for 1 hr. The reaction was terminated by aspiring the reaction mixture from the plate wells and washing the wells three times with a 1×PBS stop buffer (300 μL) and 100 mM EDTA. After the final wash, the same stop buffer (200 μL) was again added to the wells. The plates were then sealed and read on the TopCount scintillation counter.
as §3

Aurora-A = biological target: T4, Aurora-A (Mus musculus, UniProt P97477); assay: Aurora-A Screening Assay; type: biochemical, murine; conditions: for inhibition at 1 µM: test concentration of 1 μM, read-out: Aurora-A percent inhibition
T4 construct: followed by the full length protein encoding the murine Aurora-A; polyhistidine (N); made in house; host or cells: sf9 insect cells
T4 sequence (P97477 1-395): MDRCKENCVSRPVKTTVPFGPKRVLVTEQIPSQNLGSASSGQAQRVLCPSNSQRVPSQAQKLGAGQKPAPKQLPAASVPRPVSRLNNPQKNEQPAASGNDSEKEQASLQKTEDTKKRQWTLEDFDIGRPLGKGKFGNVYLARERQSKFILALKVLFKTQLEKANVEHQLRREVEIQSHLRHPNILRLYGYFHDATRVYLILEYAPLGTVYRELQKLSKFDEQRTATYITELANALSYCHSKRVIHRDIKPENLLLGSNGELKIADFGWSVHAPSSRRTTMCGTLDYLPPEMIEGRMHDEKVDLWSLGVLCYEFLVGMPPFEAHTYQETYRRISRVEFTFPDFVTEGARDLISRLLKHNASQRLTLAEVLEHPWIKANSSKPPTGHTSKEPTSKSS
Procedure: as §1, §2
Aurora-A is a fusion protein containing a polyhistidine tag at the N terminus followed by the full length protein encoding the murine Aurora-A (Accession number GB BC014711) expressed and purified from sf9 insect cells. The assay used 400 ng of the N-terminal biotinylated peptide biotin-GRTGRRNSI-amide (Aurora-A) per well.
as §3

T1 sequence (P00533 669-1210 limits assumed): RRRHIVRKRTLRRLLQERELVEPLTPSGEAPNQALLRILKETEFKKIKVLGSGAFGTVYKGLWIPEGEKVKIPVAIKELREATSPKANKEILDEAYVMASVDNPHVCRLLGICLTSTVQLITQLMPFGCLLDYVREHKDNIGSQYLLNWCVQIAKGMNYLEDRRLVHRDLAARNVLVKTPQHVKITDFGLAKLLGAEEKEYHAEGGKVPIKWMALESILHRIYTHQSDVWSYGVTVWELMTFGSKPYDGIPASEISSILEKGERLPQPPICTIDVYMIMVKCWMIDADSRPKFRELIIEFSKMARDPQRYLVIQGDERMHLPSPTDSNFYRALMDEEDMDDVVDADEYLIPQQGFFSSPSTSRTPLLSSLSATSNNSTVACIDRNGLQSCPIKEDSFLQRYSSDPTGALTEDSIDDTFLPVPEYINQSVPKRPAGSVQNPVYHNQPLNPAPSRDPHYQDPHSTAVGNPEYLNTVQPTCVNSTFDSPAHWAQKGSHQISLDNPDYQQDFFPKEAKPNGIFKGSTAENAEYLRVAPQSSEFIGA

Structure (SMILES)	pIC50 (EGFR)	inhibition at 1 µM (VEGF-R2)	inhibition at 1 µM (HER-2)	inhibition at 1 µM (Aurora-A)	inhibition at 2 µM (EGFR)	pIC50 (HER-2)	pIC50 (VEGF-R2)	pIC50 (Aurora-A)
N#Cc1cnc2sc(C(=O)Nc3cc[nH]n3)c3c2c1N(c1c(Cl)ccc2c1OCO2)C(=O)N3 [Cpd 33, 5-(5-chloro-benzo[1,3]dioxol-4-yl)-6-cyano-4-oxo-4,5-dihydro-3H-1-thia-3,5,8-triaza-acenaphthylene-2-carboxylic acid (1H-pyrazol-3-yl)-amide]	5.91	18%	37%	29%				
N#Cc1cnc2sc(C(=O)Nc3ccc(NCCCN4CCOCC4)nc3)c3c2c1N(c1c(Cl)ccc2c1OCO2)C(=O)N3 [Cpd 30, 5-(5-chloro-benzo[1,3]dioxol-4-yl)-6-cyano-4-oxo-4,5-dihydro-3H-1-thia-3,5,8-triaza-acenaphthylene-2-carboxylic acid [6-(3-morpholin-4-yl-propylamino)-pyridin-3-yl]-amide]		12%	35%	22%	11%			
Cc1cc(NC(=O)c2sc3ncc(C#N)c4c3c2NC(=O)N4c2c(Cl)ccc3c2OCO3)no1 [Cpd 34, 5-(5-chloro-benzo[1,3]dioxol-4-yl)-6-cyano-4-oxo-4,5-dihydro-3H-1-thia-3,5,8-triaza-acenaphthylene-2-carboxylic acid (5-methyl-isoxazol-3-yl)-amide]		16%		29%	30%	< 6.00		
N#Cc1cnc2sc(C(=O)Nc3ncccn3)c3c2c1N(c1c(Cl)ccc2c1OCO2)C(=O)N3 [Cpd 35, 5-(5-chloro-benzo[1,3]dioxol-4-yl)-6-cyano-4-oxo-4,5-dihydro-3H-1-thia-3,5,8-triaza-acenaphthylene-2-carboxylic acid pyrimidin-2-ylamide]		22%		16%	42%	< 6.00		

Continued, values first:

pIC50 (EGFR)	inhibition at 1 µM (VEGF-R2)	inhibition at 1 µM (HER-2)	inhibition at 1 µM (Aurora-A)	inhibition at 2 µM (EGFR)	pIC50 (HER-2)	pIC50 (VEGF-R2)	pIC50 (Aurora-A)	Structure (SMILES)
6.04	24%	41%	21%					N#Cc1cnc2sc(C(=O)Nc3ccc(CN4CCCC(CO)C4)cc3)c3c2c1N(c1c(Cl)ccc2c1OCO2)C(=O)N3 (stereo not shown) [Cpd 20, 5-(5-chloro-benzo[1,3]dioxol-4-yl)-6-cyano-4-oxo-4,5-dihydro-3H-1-thia-3,5,8-triaza-acenaphthylene-2-carboxylic acid [4-(3-hydroxymethyl-piperidin-1-ylmethyl)-phenyl]-amide]
	15%	29%	21%	35%				N#Cc1cnc2sc(C(=O)Nc3cccnc3)c3c2c1N(c1c(Cl)ccc2c1OCO2)C(=O)N3 [Cpd 36, 5-(5-chloro-benzo[1,3]dioxol-4-yl)-6-cyano-4-oxo-4,5-dihydro-3H-1-thia-3,5,8-triaza-acenaphthylene-2-carboxylic acid pyridin-3-ylamide]
	10%	0%	13%	2%				CN(C(=O)c1sc2ncc(C#N)c3c2c1NC(=O)N3c1c(Cl)ccc2c1OCO2)c1ccc(CN2CCOCC2)cc1 [Cpd 29, 5-(5-chloro-benzo[1,3]dioxol-4-yl)-6-cyano-4-oxo-4,5-dihydro-3H-1-thia-3,5,8-triaza-acenaphthylene-2-carboxylic acid methyl-(4-morpholin-4-ylmethyl-phenyl)-amide]
6.29	17%	35%	22%					COc1cc(NC(=O)c2sc3ncc(C#N)c4c3c2NC(=O)N4c2c(Cl)ccc3c2OCO3)ccc1OCCN1CCCCC1 [Cpd 31, 5-(5-chloro-benzo[1,3]dioxol-4-yl)-6-cyano-4-oxo-4,5-dihydro-3H-1-thia-3,5,8-triaza-acenaphthylene-2-carboxylic acid [3-methoxy-4-(2-piperidin-1-yl-ethoxy)-phenyl]-amide]
6.29					5.73	< 4.00	< 4.00	N#Cc1cnc2sc(C(=O)Nc3ccc(CN4CCC(N)CC4)cc3)c3c2c1N(c1c(Cl)ccc2c1OCO2)C(=O)N3 [Cpd 47, 5-(5-chloro-benzo[1,3]dioxol-4-yl)-6-cyano-4-oxo-4,5-dihydro-3H-1-thia-3,5,8-triaza-acenaphthylene-2-carboxylic acid [4-(4-amino-piperidin-1-ylmethyl)-phenyl]-amide]
6.22	28%	44%	16%					N#Cc1cnc2sc(C(=O)Nc3ccc(CN4CCC(O)CC4)cc3)c3c2c1N(c1c(Cl)ccc2c1OCO2)C(=O)N3 [Cpd 23, 5-(5-chloro-benzo[1,3]dioxol-4-yl)-6-cyano-4-oxo-4,5-dihydro-3H-1-thia-3,5,8-triaza-acenaphthylene-2-carboxylic acid [4-(4-hydroxy-piperidin-1-ylmethyl)-phenyl]-amide]
